Experimental data: PMC7377239, “Cardiovascular Effects of Polychlorinated Biphenyls and Their Major Metabolites” (Environmental Health Perspectives, 2020)
Structures can show the parent of a compound that is named as a salt. Where two headings read alike, the source gives them in different places.

How the values were obtained:
[1] = system: iCell endothelial cells (human iPSC-derived ECs); experiment: High-content imaging cytotoxicity in iCell endothelial cells, 24 h; format: cell-based; settings: Homo sapiens, Endothelial cell, iPSC-EC, 24 hr; for viability at 0.1 µM / activity at 0.1 µM: 0.10 µM; for minimal effective concentration: top concentration 100.00 µM
How it was run: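 Human iPSC-derived endothelial cells (passages 1–5) were grown to a fibronectin-coated monolayer, then exposed 24 h at 37 °C with 0.5% DMSO vehicle. Staining was Hoechst 33342, MitoTracker Orange and calcein AM, read by high-content imaging. Point of departure came from 4-parameter logistic fits, with a 1-SD vehicle cutoff and 100 µM as the top concentration.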

HUVECs = experiment: Tube formation (tubulogenesis) assay in HUVECs, 18 h; format: cell-based, human; settings: Homo sapiens, HUVEC, 18 h, HUVECs; for activity at 0.1 µM: 0.10 µM; for minimal effective concentration: top concentration 100.00 µM
How it was run: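 HUVECs (passage 1–5) seeded on reduced-growth-factor basement membrane and exposed to compounds overnight at 37°C, 5% CO2, in 2× maintenance medium with 12.5 ng/mL VEGF; 0.5% DMSO vehicle. Calcein AM-stained tube networks imaged and analysed; vehicle-normalized readouts fit to four-parameter logistic, POD set at one SD of vehicle means.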

[2] = 0.00 µM control = 100.00, read-out: endo.cyto.24hr
[3] = 0.00 µM control = 100.00, read-out: endo.mito.24hr
[4] = 0.00 µM control = 100.00, read-out: endo.mitoint.24hr
[5] = 0.00 µM control = 100.00, read-out: endo.nma.24hr
[6] = 0.00 µM control = 100.00, read-out: endo.tc.24hrs
[7] = 0.00 µM = 100.00, read-out: huvec.mtl.18hr
[8] = 0.00 µM = 100.00, read-out: huvec.tlps.18hr
[9] = 0.00 µM = 100.00, read-out: huvec.tta.18hr
[10] = 0.00 µM = 100.00, read-out: huvec.ttl.18hr

In the case of `O=S(=O)(O)Oc1cc(-c2ccccc2)ccc1Cl` [3-yl PCB 3 sulfate], the viability at 0.01 µM [1, 2] is reported as 93.7%, the activity at 0.01 µM [1, 3] is reported as 93.8% and the activity at 0.01 µM [1, 4] is reported as 120%. It also gave an activity at 0.01 µM [1, 5] of 104%, a viability at 0.01 µM [1, 6] of 93.7% and a viability at 0.1 µM [1, 2] of 93%. It also gave an activity at 0.1 µM [1, 3] of 93.3%, an activity at 0.1 µM [1, 4] of 105% and an activity at 0.1 µM [1, 5] of 104%. The viability at 0.1 µM [1, 6] was 93%, the viability at 1 µM [1, 2] was 102% and the activity at 1 µM [1, 3] was 103%. For the same compound, the activity at 1 µM [1, 4] was 104%, the activity at 1 µM [1, 5] was 97.9% and the viability at 1 µM [1, 6] was 102%. The viability at 10 µM [1, 2] was 96.5%, the activity at 10 µM [1, 3] was 96.5% and the activity at 10 µM [1, 4] was 104%. The activity at 10 µM [1, 5] was 99.6%, the viability at 10 µM [1, 6] was 96.5% and the viability at 100 µM [1, 2] was 96.6%. The activity at 100 µM [1, 3] was 96.5%, the activity at 100 µM [1, 4] was 98.4% and the activity at 100 µM [1, 5] was 99.8%. For the same compound, the viability at 100 µM [1, 6] was 96.6%, the minimal effective concentration ([1]; read-out: endo.cyto.24hr POD) was 100 µM and the minimal effective concentration ([1]; read-out: endo.mito.24hr POD) was 100 µM. The minimal effective concentration ([1]; read-out: endo.mitoint.24hr POD) was 100 µM, the minimal effective concentration ([1]; read-out: endo.nma.24hr POD) was 100 µM and the minimal effective concentration ([1]; read-out: endo.tc.24hrs POD) was 100 µM. It also gave an activity at 0.01 µM (HUVECs; [7]) of 95%, an activity at 0.01 µM (HUVECs; [8]) of 89.1% and an activity at 0.01 µM (HUVECs; [9]) of 78%. The activity at 0.01 µM (HUVECs; [10]) was 73.3%, the activity at 0.1 µM (HUVECs; [7]) was 100% and the activity at 0.1 µM (HUVECs; [8]) was 109%. For the same compound, the activity at 0.1 µM (HUVECs; [9]) was 141%, the activity at 0.1 µM (HUVECs; [10]) was 137% and the activity at 1 µM (HUVECs; [7]) was 94.1%. The activity at 1 µM (HUVECs; [8]) was 116%, the activity at 1 µM (HUVECs; [9]) was 124% and the activity at 1 µM (HUVECs; [10]) was 123%. For the same compound, the activity at 10 µM (HUVECs; [7]) was 91.9%, the activity at 10 µM (HUVECs; [8]) was 112% and the activity at 10 µM (HUVECs; [9]) was 114%. It also gave an activity at 10 µM (HUVECs; [10]) of 110%, an activity at 100 µM (HUVECs; [7]) of 62.3% and an activity at 100 µM (HUVECs; [8]) of 58.1%. The activity at 100 µM (HUVECs; [9]) was 63.7%, the activity at 100 µM (HUVECs; [10]) was 61.1% and the minimal effective concentration (HUVECs; read-out: huvec.mtl.18hr POD) was 11.5 µM. For the same compound, the minimal effective concentration (HUVECs; read-out: huvec.tlps.18hr POD) was 65.8 µM, the minimal effective concentration (HUVECs; read-out: huvec.tta.18hr POD) was 100 µM and the minimal effective concentration (HUVECs; read-out: huvec.ttl.18hr POD) was 52.1 µM.
